Several values for one entry are separate records, joined by “and”; a condition that tells them apart may be missing. Equal values may be shown once. One block for each compound: values may come before it.
Experiments:
Type in all cases: cell-based, human
SNAT1/2 = test: FMP assay: depolarisation by amino acid substrates in amino acid depleted HCC1806 cells; conditions: for FMP fluorescence reading: amino acid 1 mM final
Method: The FLIPR Membrane Potential Blue Explorer Kit (Molecular Devices) was used to characterise inhibitors and to optimise a high-throughput compound screen. Cells were seeded at approximately 60,000 cells/well on a 96-well plate and allowed to attach and grow overnight in a cell incubator. […] Cells were then washed once with mHBSS and incubated with 50 µl of the mHBSS-resuspended FMP assay dye and 50 µl of mHBSS (with or without inhibitors) and incubated at room temperature for 30 min. The plate was then placed in an EnSpire Multimode plate reader (PerkinElmer) and four sequential measurements of fluorescence were recorded as a baseline reference. Immediately after the baseline measurements were taken, 25 µl of 5 mM glutamine dissolved in mHBSS was injected into each well and the plate was shaken orbitally for 5 s before a series of consecutive fluorescence measurements were taken. The excitation wavelength was set to 530 nm and the emission was detected at 565 nm. […] After the assay was complete, the liquid content of the plate was carefully removed, and the cell monolayer inspected to ensure it remained intact throughout the course of the assay.

MDA-MB-231 cells = test: Growth assay (IncuCyte confluence), MDA-MB-231; design: key to Growth (Figure 6A) / cell confluence (Figure 6F): % confluence; conditions: MDA-MB-231; CB-839 10uM; replicates 1-3
Method: (§1) Cells were seeded on 96-well flat bottom plates at approximately 3000 cells/well and incubated in growth medium (DMEM/F12 supplemented with 10% FBS, 2 mM glutamine) for 24 h. The next day, the growth medium was aspirated and exchanged with 300 μL/well of growth medium containing compounds at the indicated concentration. For live cell analysis, plates were placed in the IncuCyte system (Essen Bioscience), which was housed in a cell incubator (37°C, humidified atmosphere composed of 95% air and 5% CO2) and confluence measured at 6-h intervals or at the assay endpoint when untreated control cells reached a confluency >90%. Antibiotics (10 U/mL penicillin and 10 μg/ml streptomycin) were included in the treatment solutions.
(§2) Growth curves were generated using the Gompertz function of OriginPro software: y=ae^−e^(−k(x−xc))
(§3) Where a is the maximum confluence or upper asymptote, k is the growth rate coefficient, xc is the time point at which 50% confluence is reached (inflection point) and e is Euler’s number. Cell growth data are shown as % confluence.
(§4) Synergism between drug combinations was quantified using ZIP synergy scoring as calculated by SynergyFinder ([Yadav et al., 2015]).

HPAFII cells = test: Growth assay (IncuCyte confluence), HPAFII; design: key to Growth (Figure 6A) / cell confluence (Figure 6F): % confluence; conditions: CB-839 10uM, replicates 1-3
Method: as §1, §2, §3, §4

SNAT1 and SNAT2 = test: FMP assay: inhibition of glutamine-induced membrane depolarisation in amino acid depleted HCC1806 cells; conditions: FMP assay, top hit compounds from the HTS, 9-point dose-response, n = 6
Method: The FLIPR Membrane Potential Blue Explorer Kit (Molecular Devices) was used to characterise inhibitors and to optimise a high-throughput compound screen. Cells were seeded at approximately 60,000 cells/well on a 96-well plate and allowed to attach and grow overnight in a cell incubator. […] Cells were then washed once with mHBSS and incubated with 50 µl of the mHBSS-resuspended FMP assay dye and 50 µl of mHBSS (with or without inhibitors) and incubated at room temperature for 30 min. The plate was then placed in an EnSpire Multimode plate reader (PerkinElmer) and four sequential measurements of fluorescence were recorded as a baseline reference. Immediately after the baseline measurements were taken, 25 µl of 5 mM glutamine dissolved in mHBSS was injected into each well and the plate was shaken orbitally for 5 s before a series of consecutive fluorescence measurements were taken. The excitation wavelength was set to 530 nm and the emission was detected at 565 nm. The Δ fluorescent signal reported in the figures was taken 30 s after substrate addition. After the assay was complete, the liquid content of the plate was carefully removed, and the cell monolayer inspected to ensure it remained intact throughout the course of the assay.
IC50 were calculated using equation y=ymax(1−x/x+IC50)

SMILES: NC(=O)CCC(N)C(=O)O (stereo in doubt) [D-glutamine]
- FMP fluorescence reading (SNAT1/2; t=0 s): 42839 and 39003 and 33523
- FMP fluorescence reading (SNAT1/2; t=15 s): 50034 and 45149 and 38644
- FMP fluorescence reading (SNAT1/2; t=30 s): 50270 and 45056 and 39117
- FMP fluorescence reading (SNAT1/2; t=45 s): 50350 and 45753 and 39233
- FMP fluorescence reading (SNAT1/2; t=60 s): 50602 and 45748 and 39437
- FMP fluorescence reading (SNAT1/2; t=75 s): 50996 and 45609 and 39481
- FMP fluorescence reading (SNAT1/2; t=90 s): 51179 and 45923 and 39430
- FMP fluorescence reading (SNAT1/2; t=105 s): 51145 and 45682 and 40002
- FMP fluorescence reading (SNAT1/2; t=120 s): 51340 and 46043 and 40162
- FMP fluorescence reading (SNAT1/2; t=135 s): 51584 and 46357 and 40097
- FMP fluorescence reading (SNAT1/2; t=-15 s): 43005 and 38805 and 33297
- FMP fluorescence reading (SNAT1/2; t=-30 s, replicates 1-3): 42947 and 39128 and 33746

SMILES: C[C@H](N)C(=O)O [Alanine]
- FMP response as substrate (SNAT1/2; 1 mM): strongest response
- FMP fluorescence reading (SNAT1/2; t=0 s): 54596 and 53457 and 39829
- FMP fluorescence reading (SNAT1/2; t=15 s): 99809 and 107431 and 86655
- FMP fluorescence reading (SNAT1/2; t=30 s): 104988 and 111613 and 89183
- FMP fluorescence reading (SNAT1/2; t=45 s): 107389 and 114043 and 90927
- FMP fluorescence reading (SNAT1/2; t=60 s): 109154 and 114952 and 91569
- FMP fluorescence reading (SNAT1/2; t=75 s): 110049 and 115127 and 91618
- FMP fluorescence reading (SNAT1/2; t=90 s): 110411 and 114906 and 91021
- FMP fluorescence reading (SNAT1/2; t=105 s): 110237 and 114204 and 90013
- FMP fluorescence reading (SNAT1/2; t=120 s): 109638 and 112786 and 88869
- FMP fluorescence reading (SNAT1/2; t=135 s): 108521 and 111868 and 87878
- FMP fluorescence reading (SNAT1/2; t=-15 s): 54286 and 53641 and 39860
- FMP fluorescence reading (SNAT1/2; t=-30 s, replicates 1-3): 53991 and 53679 and 39761

SMILES: N=C(N)NCCC[C@H](N)C(=O)O [Arginine]
- FMP fluorescence reading (SNAT1/2; t=0 s): 57601 and 55451 and 44145
- FMP fluorescence reading (SNAT1/2; t=15 s): 59785 and 58453 and 46579
- FMP fluorescence reading (SNAT1/2; t=30 s): 60283 and 58803 and 46849
- FMP fluorescence reading (SNAT1/2; t=45 s): 60859 and 58896 and 47284
- FMP fluorescence reading (SNAT1/2; t=60 s): 61207 and 59368 and 47582
- FMP fluorescence reading (SNAT1/2; t=75 s): 60824 and 59447 and 47575
- FMP fluorescence reading (SNAT1/2; t=90 s): 61207 and 59194 and 47872
- FMP fluorescence reading (SNAT1/2; t=105 s): 61703 and 59566 and 47735
- FMP fluorescence reading (SNAT1/2; t=120 s): 61529 and 59552 and 47812
- FMP fluorescence reading (SNAT1/2; t=135 s): 61459 and 60027 and 47987
- FMP fluorescence reading (SNAT1/2; t=-15 s): 57812 and 55789 and 44423
- FMP fluorescence reading (SNAT1/2; t=-30 s, replicates 1-3): 57675 and 55602 and 44293

SMILES: O=C(Cc1cccc(OC(F)(F)F)c1)Nc1ccc(CCCCc2nnc(NC(=O)Cc3ccccn3)s2)nn1 [CB-839]
- cell confluence (Figure 6F) (MDA-MB-231 cells): 98.45 and 98.5 (2×)
- cell confluence (Figure 6F) (HPAFII cells): 88.1 and 96.7 and 88.9

- IC50 (SNAT1 and SNAT2): 3.84 µM
SMILES: CCN1CCN(Cc2nn(-c3ccc(C)c(Cl)c3)c(N)c2-c2ccccc2)CC1 [Compound 55_A]

- IC50 (SNAT1 and SNAT2): 83.5 µM
SMILES: C#Cc1cccc(NC(=O)N2CC(S(=O)(=O)N3CCN(C(=O)OC(C)(C)C)CC3)C2)c1 [Compound 55_G]
